The values that follow come from US20250275964A1, “METHODS OF INHIBITING LIVER-TYPE GLUTAMINASE, GLS2” (CORNELL UNIVERSITY, priority 2019, published 2025).

For orientation: EC50 means the concentration that produces a half-maximal response. Higher therefore signals lower potency in that assay.

Experiment [1] concerns the target T1, recombinant full-length human GLS2 (Homo sapiens, UniProt Q9UI32).
T1 construct: GLS2 (residues 38 to 602) in E. coli; inferred from pQE80 vector and Ni-NTA/imidazole purification; made in house; host or cells: E. coli BL21(DE3)
T1 sequence (Q9UI32 38-602): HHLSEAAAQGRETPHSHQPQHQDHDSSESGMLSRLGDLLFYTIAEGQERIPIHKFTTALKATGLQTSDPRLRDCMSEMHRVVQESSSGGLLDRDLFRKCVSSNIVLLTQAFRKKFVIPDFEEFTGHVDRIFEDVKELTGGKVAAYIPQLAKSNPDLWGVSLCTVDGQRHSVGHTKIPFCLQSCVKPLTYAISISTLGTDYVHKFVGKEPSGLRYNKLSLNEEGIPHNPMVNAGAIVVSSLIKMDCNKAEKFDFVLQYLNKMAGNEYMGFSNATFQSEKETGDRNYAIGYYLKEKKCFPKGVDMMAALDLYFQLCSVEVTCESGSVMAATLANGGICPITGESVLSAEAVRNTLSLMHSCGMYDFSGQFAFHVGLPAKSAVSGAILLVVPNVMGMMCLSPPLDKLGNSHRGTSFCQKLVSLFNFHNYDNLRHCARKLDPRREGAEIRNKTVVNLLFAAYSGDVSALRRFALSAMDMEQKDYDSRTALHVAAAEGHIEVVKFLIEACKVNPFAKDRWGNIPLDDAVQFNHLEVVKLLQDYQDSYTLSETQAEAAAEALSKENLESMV
The experiment can be described thus: Real-time recombinant glutaminase activity assay, GLS2. The experiment is classed as biochemical. On the procedure:
Real-time monitoring of glutaminase activity through NADH production was performed on a Cary Eclipse fluorescence spectrometer. The excitation and emission wavelengths were set at 340 nm and 460 nm, respectively. To a 1 ml cuvette, 900 μl of assay buffer was added, followed by 10 μl of GDH, 40 μl of 50 mM NAD and 20 μl of either DMSO or various dilutions of 968. Then, 100 μl of either 100 nM GAC or 500 nM GLS2 was added to this mixture and the fluorescence emission was monitored in real time. After 30 s, 200 μl of a mixture of glutamine and K2HPO4 was added such that the final concentrations of K2HPO4 and glutamine were 100 mM and 20 mM, respectively. The initial velocity of glutamine hydrolysis was obtained from the slopes of the linear portion of the kinetic curve.
Recombinant GAC and GLS2 were expressed in E. coli as described in Huang et al., “Characterization of the Interactions of Potent Allosteric Inhibitors with Glutaminase C, a Key Enzyme in Cancer Cell Glutamine Metabolism,” J. Biol. Chem. 293:3535-3545 (2018), which is hereby incorporated by reference in its entirety. Briefly, E. coli strain BL21(DE3) (Thermo Fisher Scientific) were transformed with vector pQE80-GAC-72-598 or with pQE80-GLS2-38-602 to express the processed forms of GAC and GLS2, respectively. For both constructs, expression was induced with 0.3 mM IPTG for 20 hours at 18° C., and cells were then harvested by centrifugation and lysed by sonication in binding buffer (500 mM NaCl, 50 mM Tris-HCl pH 8.5, 10 mM imidazole, 5 mM β-mercaptoethanol, 1 mM benzamidine chloride). The lysate was centrifuged, and the supernatant applied to a Ni-NTA column which was then washed with 100 column volumes of binding buffer followed by 10 volumes of wash buffer (500 mM NaCl, 50 mM Tris-HCl pH 8.5, 40 mM imidazole, 5 mM β-mercaptoethanol, 1 mM benzamidine chloride). Protein was eluted with 5 column volumes of elution buffer (500 mM NaCl, 300 mM imidazole-HCl pH 7.5, 5 mM β-mercaptoethanol, 1 mM benzamidine chloride). The eluate was centrifugally concentrated and then further purified by FPLC using a HiLoad 16/600 Superdex 200 column (GE Healthcare) with 150 mM NaCl, 5 mM Tris-HCl pH 7.5.

Another experiment deals with BT-474 cells. The experiment can be described thus: 6-day cell proliferation assay, BT-474. The experiment is classed as cell-based, human. Conditions: BT-474, proliferation over 6 days. On the procedure:
Human breast cancer cell lines MCF7, BT-474, T-47D, MDA-MB-453, MDA-MB-231, Hs 578T, HCC38, SK-BR-3, and DU4475 were purchased from the American Type Culture Collection (ATCC) and no additional cell authentication was performed. The TSE human breast cancer cell line was supplied by Dr. Steven Abcouwer (University of Michigan). All breast cancer cells were cultured at 37° C. under a 5% CO2 atmosphere in RPMI 1640 medium containing 2 mM glutamine (Gibco) and supplemented with 10% fetal bovine serum (FBS) (Gibco). The 293T cell line (ATCC) used for generating lentivirus particles was cultured as above but using DMEM, high glucose (Gibco).
Culture medium was added to 12-well plates (1 ml/well) and wells were seeded with cells at Day 0 as follows. MCF7, T-47D, BT-474, HCC38 cells: […] cells/well. MDA-MB-453 and MDA-MB-231 cells: 1×10^4 cells/well. TSE and Hs 578T cells: 0.3×10^4 cells/well. After 16 hours, culture medium was replaced with fresh medium supplemented with appropriate concentrations of inhibitors and was subsequently replaced every 48 hours. On Day 6 cells were trypsinized and suspended in an appropriate volume of culture medium, and the total number of cells per well was determined using a hemocytometer or a TC20 Automated Cell Counter (Bio-Rad).

Where “and” joins values, the source holds several entries; their conditions need not be identical. Equal values may be shown once.

Turning to `O=C(Cc1ccccc1)Nc1nnc(CCSCCc2nnc(NC(=O)Cc3ccccc3)s2)s1` [BPTES], the “inhibition of recombinant GLS2 activity” value in experiment [1] (different concentrations) was “resistance”. The molecule further returned an EC50 in the experiment on BT-474 cells of about 20 µM.

Turning to `CN(C)c1ccc(C2Nc3ccc4ccccc4c3C3=C2C(=O)CC(C)(C)C3)cc1Br` (stereo not drawn) [Compound 968], the “inhibition of recombinant GLS2 activity” value in experiment [1] (at 50 μM, NADH fluorescence in real time) was “completely blocks activity”; in experiment [1] (different concentrations), “inhibited”. In experiment [1] (purified recombinant glutaminases), the “selectivity for GLS2 over GLS” value is > 3 fold and ~3 fold. In the experiment with BT-474 cells, the response was half-maximal at 4 µM (EC50).
